Measurements taken from patent US9382204B2, “Inhibitors targeting the DNA-binding domain of human STAT3 for treatment of metastatic cancers” (Indiana University Research and Technology Corporation, priority 2013, dated 2016).

System: STAT3
Assay: STAT3-dependent luciferase reporter assay in MDA-MB-231-STAT3 stable cells
Format: cell-based, human
Conditions: 20 μM; for Rel. luciferase activity (%) 1: experiment 1, relative to DMSO; for Rel. luciferase activity (%) 2: experiment 2, relative to DMSO; for Rel. luciferase activity (%) 3: experiment 3, relative to DMSO; for Rel. luciferase activity (%) Mean: mean of experiments, relative to DMSO; for inhibition of luciferase expression compared to DMSO vehicle control: significant = p value less than 0.05
Method: FIG. 12. Identification of active inS3-54 analogues. (A) Effects of inS3-54 analogues on STAT3-dependent luciferase expression. MDA-MB-231 cells with stable STAT3-dependent luciferase expression were treated with DMSO control, 20 μM inSTAT3-54 or its analogues (A1-A79), followed by measurement of luciferase activity. (*p<0.05; **p<0.01; ***p<0.001).
MDA-MB-231-STAT3 stable cell line with high level of STAT3-dependent luciferase expression was exposed to candidate compounds at 20 μM in DMSO for 48 hours based on previous studies, and luciferase activity was measured using a luciferase assay kit (Promega, USA), following manufacturer's instructions. The final DMSO concentration in this and following assays was 0.1% (vol/vol).

Row | Compound | Rel. luciferase activity (%) 1 | Rel. luciferase activity (%) 2 | Rel. luciferase activity (%) 3 | Rel. luciferase activity (%) Mean | inhibition of luciferase expression compared to DMSO vehicle control
1 | O=C1C(=Cc2ccc(Cl)cc2)C=C(c2ccccc2)N1c1ccc(Nc2ccccc2)cc1 [Compound A28] | 67.2% | 106.0% | 62.1% | 78.4% | –
2 | O=C(O)c1cccc(N2C(=O)C(=Cc3ccc(-c4cc(Cl)ccc4Cl)o3)C=C2c2ccccc2)c1 [Compound A2] | 120.3% | 107.5% | 114.1% | 114.0% | –
3 | COc1ccc(C=C2C=C(c3ccccc3)N(c3ccc(F)cc3)C2=O)cc1 [Compound A53] | 45.4% | 113.0% | 47.4% | 68.6% | –
4 | O=C1C(=Cc2ccc([N+](=O)[O-])cc2)C=C(c2ccccc2)N1c1ccc2ccccc2c1 [Compound A46] | 156.2% | 147.8% | 64.9% | 122.9% | –
5 | O=C1C(=Cc2ccc([N+](=O)[O-])cc2)C=C(c2ccccc2)N1Cc1ccccc1 [Compound A36] | 46.4% | 87.4% | 66.3% | 66.7% | significantly inhibited
6 | COc1cccc(N2C(=O)C(=Cc3ccc([N+](=O)[O-])cc3)C=C2c2ccccc2)c1 [Compound A41] | 60.5% | 79.5% | 81.2% | 73.7% | significantly inhibited
7 | Cc1ccc(N2C(=O)C(=Cc3ccc([N+](=O)[O-])cc3)C=C2c2ccccc2)cc1C [Compound A29] | 100.7% | 170.4% | 113.3% | 128.1% | –
8 | O=C1C(=Cc2ccc([N+](=O)[O-])cc2)C=C(c2ccccc2)N1c1ccccc1O [Compound A42] | 100.8% | 145.3% | 100.8% | 115.6% | –
9 | O=C1C(=Cc2ccc([N+](=O)[O-])cc2)C=C(c2ccccc2)N1c1cccc(Cl)c1 [Compound A38] | 66.5% | 119.9% | 88.8% | 91.8% | –
10 | O=C1C(=Cc2ccc(Cl)cc2)C=C(c2ccccc2)N1c1ccc(-c2ccccc2)cc1 [Compound A20] | 63.2% | 85.1% | 63.8% | 70.7% | significantly inhibited
11 | COc1ccc(C=C2C=C(c3ccccc3)N(c3ccc(NC(C)=O)cc3)C2=O)cc1 [Compound A60] | 70.7% | 107.0% | 58.9% | 78.9% | –
12 | O=C1C(=Cc2ccc([N+](=O)[O-])cc2)C=C(c2ccccc2)N1c1ccccc1 [Compound A68] | 71.2% | 84.5% | 68.7% | 74.8% | significantly inhibited
13 | O=C1C(=Cc2ccc(Cl)cc2)C=C(c2ccccc2)N1c1ccc2ccccc2c1 [Compound A59] | 124.7% | 148.5% | 80.5% | 117.9% | –
14 | Cc1ccc(N2C(=O)C(=Cc3ccc(Cl)cc3)C=C2c2ccccc2)cc1[N+](=O)[O-] [Compound A25] | 74.6% | 124.2% | 87.8% | 95.6% | –
15 | COc1ccc(C=C2C=C(c3ccccc3)N(c3ccc(O)cc3)C2=O)cc1 [Compound A72] | 34.2% | 58.1% | 34.1% | 42.1% | significantly inhibited
16 | COc1ccc(C=C2C=C(c3ccccc3)N(c3ccc4ccccc4c3)C2=O)cc1 [Compound A56] | 150.7% | 143.4% | 76.2% | 123.4% | –
17 | O=C1C(=Cc2ccc([N+](=O)[O-])cc2)C=C(c2ccccc2)N1c1ccc(F)cc1 [Compound A40] | 126.5% | 101.5% | 43.0% | 90.3% | –
18 | O=C1C(=Cc2ccc(-c3ccc([N+](=O)[O-])cc3)o2)C=C(c2ccccc2)N1c1ccccc1 [Compound A62] | 71.1% | 111.3% | 52.2% | 78.2% | –
19 | COc1ccc(N2C(=O)C(=Cc3ccc(Cl)cc3)C=C2c2ccccc2)cc1 [Compound A17] | 103.2% | 120.5% | 104.2% | 109.3% | –
20 | O=C1C(=Cc2ccc([N+](=O)[O-])cc2)C=C(c2ccccc2)N1c1ccc(Nc2ccccc2)cc1 [Compound A49] | 93.7% | 124.2% | 90.2% | 102.7% | –
21 | COc1ccc(N2C(=O)C(=Cc3ccc(-c4ccc([N+](=O)[O-])cc4)o3)C=C2c2ccccc2)cc1 [Compound A7] | 99.6% | 109.4% | 72.3% | 93.8% | –
